Reference: paper PMC8748767 (Nature Communications, 2022)
Several values for one entry are separate records, joined by “and”; a condition that tells them apart may be missing. Equal entries are not always repeated. Where two headings read alike, the source gives them in different places.

Experiments:
[1] = biological target: T1, full-length human TH (TH1) (Homo sapiens, UniProt P07101); test: biochemical; conditions: for IC50: mean ± SD, n = 3, 37 °C, 50 µM L-Tyr, 200 µM BH4
Description: (§1) The activity of purified TH and truncated forms was assayed at 37 °C[7]. The purified enzymes were kept on ice and diluted with 0.5% (w/v) bovine serum albumin in 20 mM Na-Hepes pH 7, 200 mM NaCl and centrifuged at 10,000 × g for 5 min at 4 °C. […] TH was added to a final concentration of 1 µg/ml (17 nM subunit) and preincubated at 37 °C for 1 min. […] Protein was removed by precipitation at −20 °C for 90 min followed by centrifugation at 20,000 × g for 14 min at 4 °C. The amount of L-Dopa in the supernatant was determined using a 1200 series high performance liquid chromatography (HPLC) system (Agilent technologies). The chromatographic separation was obtained using an Agilent Zorbax 300-SCX column with 20 mM HAc pH 3.5, 2% (v/v) propanol as mobile phase at a flow rate of 3 ml/min. The fluorescence detector was set to λex = 280 nm and λem = 314 nm.
(§2) Statistical analyses were performed with Graphpad Prism software version 8.3.0. For SRCD, DSC and TH activity measurements, three enzyme samples from independent protein purifications were measured and the mean ± SD (standard deviation) was calculated. The homogeneity of variances was confirmed by Brown-Forsythe tests and multiple comparisons were made using one-way analysis of variance (ANOVA) followed by a post hoc HSD Tukey test. […] The individual curves were fitted to a four-parameter logistic curve by the [Inhibitor] vs. response—Variable slope equation (y = min + ((max − min)/(1 + IC50/X)^Hill Slope) in Graphpad and the mean IC50 ± SD reported.

[2] = biological target: THNΔ35 (human TH with the first 35 residues deleted) (Homo sapiens, UniProt P07101); test: Assay of TH activity and inhibition by DA, deletion mutant THNΔ35; format: biochemical
Description: as §1, §2

[3] = biological target: THNΔ43 (human TH lacking the N-terminal 43 residues) (Homo sapiens, UniProt P07101); test: Assay of TH activity and inhibition by DA, deletion mutant THNΔ43; format: biochemical
Description: as §1, §2

[4] = biological target: THNΔ70 (human TH with the entire N-terminal removed) (Homo sapiens, UniProt P07101); test: Assay of TH activity and inhibition by DA, deletion mutant THNΔ70; format: biochemical
Description: as §1, §2

[5] = biological target: THS40p (S40 phosphorylated human TH) (Homo sapiens, UniProt P07101); test: biochemical
Description: TH was phosphorylated on S40 (control without kinase)[3], using the catalytic subunit of cAMP-dependent protein kinase (CatPKA, kind gift from S.O. Døskeland[64]). TH (4 mg/ml) was assayed in 50 mM Na-β-glycerophosphate pH 7.5, 1 mM DTT, 0.1 mM EGTA, 1x protease inhibitor cocktail (without EDTA, Pierce), 0.5 mM ATP, 5 mM MgCl2 and incubated with the catalytic subunit of CatPKA (200 nM, diluted from 20 µM in 60% glycerol, 0.5 mg/ml soya bean trypsin inhibitor) for 30 min at 25 °C. […] After phosphorylation, H89 (Sigma) (5 µM) was added and the samples were exchanged into 20 mM Hepes pH 7.0, 200 mM NaCl.
as §1
Statistical analyses were performed with Graphpad Prism software version 8.3.0. For SRCD, DSC and TH activity measurements, three enzyme samples from independent protein purifications were measured and the mean ± SD (standard deviation) was calculated. The homogeneity of variances was confirmed by Brown-Forsythe tests and multiple comparisons were made using one-way analysis of variance (ANOVA) followed by a post hoc HSD Tukey test. […]

[6] = biological target: T1, full-length human TH (TH1); test: Differential scanning calorimetry (DSC), thermal stability with DA, TH; format: binding
Description: (§3) In all experiments, 9 μM TH in 20 mM Na-Hepes pH 7, 200 mM NaCl was used, with the same buffer as reference, heating from 25 to 75 °C at a scan rate of 200 °C/h.

THNΔ35 = biological target: T2, THNΔ35 (Homo sapiens, UniProt P07101); test: Differential scanning calorimetry (DSC), thermal stability with DA, THNΔ35; format: binding
T2 construct: His-MBP (TEV site) (N, cleaved yes); made in house
Description: as §3

THNΔ43 = biological target: T3, THNΔ43 (Homo sapiens, UniProt P07101); test: Differential scanning calorimetry (DSC), thermal stability with DA, THNΔ43; format: binding
T3 construct: His-MBP (TEV site) (N, cleaved yes); made in house
Description: as §3

THNΔ70 = biological target: T4, THNΔ70 (Homo sapiens, UniProt P07101); test: Differential scanning calorimetry (DSC), thermal stability with DA, THNΔ70; format: binding
T4 construct: His-MBP (TEV site) (N, cleaved yes); made in house
Description: as §3

[7] = biological target: TH, THNΔ35, THNΔ43, THNΔ70, THS40p (Homo sapiens, UniProt P07101); conditions: far-UV SRCD, two-fold molar ratio of DA
Description: SRCD spectra were collected as from 280 to 170 nm (3 scans averaged) at 25 °C on the AU-UV beamline at ASTRID2, part of the Institute for Storage Rings (ISA) facility at the University of Aarhus, Denmark. […] The path length of the cell was confirmed using an interferometry method and found to be 100.1 µm. The protein concentration was measured using Abs280nm prior to the measurements and more accurately by A205nm from the absorption spectra measured simultaneously with the CD spectra, using the respective theoretical extinction coefficients[65]. The A205nm measurements were used in the conversion of raw CD units to ∆ε(M^−1cm^−1) values. Secondary structure content was determined in the 250–180 nm range using the BeStSel algorithm[66].

[8] = individual samples (source data Sup Table 9)

Chain of THNΔ35 (human TH with the first 35 residues deleted) (P07101 67-528 limits assumed, stated change not applied): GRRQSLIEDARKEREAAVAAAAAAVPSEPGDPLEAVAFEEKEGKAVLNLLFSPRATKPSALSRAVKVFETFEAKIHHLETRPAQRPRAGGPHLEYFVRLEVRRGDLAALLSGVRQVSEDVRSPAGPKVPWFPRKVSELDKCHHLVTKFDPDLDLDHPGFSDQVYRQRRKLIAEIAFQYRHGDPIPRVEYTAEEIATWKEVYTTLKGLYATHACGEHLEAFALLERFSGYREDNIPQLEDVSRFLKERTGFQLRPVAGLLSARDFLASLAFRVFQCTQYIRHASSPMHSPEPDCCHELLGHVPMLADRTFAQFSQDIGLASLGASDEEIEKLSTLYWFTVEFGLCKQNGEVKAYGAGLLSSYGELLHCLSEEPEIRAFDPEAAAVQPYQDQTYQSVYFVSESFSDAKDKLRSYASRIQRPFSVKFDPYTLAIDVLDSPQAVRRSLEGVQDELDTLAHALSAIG
T2 sequence (P07101 67-528 limits assumed, stated change not applied): as above
T3 sequence (P07101 75-528 limits assumed, stated change not applied): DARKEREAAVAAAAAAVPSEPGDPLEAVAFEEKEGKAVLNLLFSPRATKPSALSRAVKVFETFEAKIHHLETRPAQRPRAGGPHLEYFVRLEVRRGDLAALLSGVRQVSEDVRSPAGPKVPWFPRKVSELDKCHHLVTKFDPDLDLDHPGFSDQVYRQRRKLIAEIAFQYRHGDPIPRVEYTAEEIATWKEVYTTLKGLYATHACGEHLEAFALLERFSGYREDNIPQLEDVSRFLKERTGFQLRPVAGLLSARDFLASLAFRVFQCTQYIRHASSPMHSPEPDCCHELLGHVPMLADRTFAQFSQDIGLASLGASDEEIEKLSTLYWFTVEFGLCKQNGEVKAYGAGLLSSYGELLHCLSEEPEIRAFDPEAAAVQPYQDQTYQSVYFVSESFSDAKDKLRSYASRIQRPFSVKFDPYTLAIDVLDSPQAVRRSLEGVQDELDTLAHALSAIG
Chain of THNΔ43 (human TH lacking the N-terminal 43 residues) (P07101 75-528 limits assumed, stated change not applied): as above
Chain of THS40p (S40 phosphorylated human TH) (P07101 1-497 isoform P07101-3): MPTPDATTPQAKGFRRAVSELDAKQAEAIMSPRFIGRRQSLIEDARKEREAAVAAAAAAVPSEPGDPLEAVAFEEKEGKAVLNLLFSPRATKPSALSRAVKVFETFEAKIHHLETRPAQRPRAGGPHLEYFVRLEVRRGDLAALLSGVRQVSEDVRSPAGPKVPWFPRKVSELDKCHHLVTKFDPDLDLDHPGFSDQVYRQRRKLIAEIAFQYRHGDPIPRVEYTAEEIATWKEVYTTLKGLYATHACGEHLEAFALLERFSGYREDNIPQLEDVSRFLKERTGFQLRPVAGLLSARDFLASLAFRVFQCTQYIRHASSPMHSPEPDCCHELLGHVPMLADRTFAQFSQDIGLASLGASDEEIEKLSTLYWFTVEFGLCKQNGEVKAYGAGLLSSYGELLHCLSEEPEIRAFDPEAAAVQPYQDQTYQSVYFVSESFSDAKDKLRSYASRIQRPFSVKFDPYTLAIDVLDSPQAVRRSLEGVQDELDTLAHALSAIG
T1 sequence (P07101 1-497 isoform P07101-3): as above
Chain of THNΔ70 (human TH with the entire N-terminal removed) (P07101 102-528 limits assumed, stated change not applied): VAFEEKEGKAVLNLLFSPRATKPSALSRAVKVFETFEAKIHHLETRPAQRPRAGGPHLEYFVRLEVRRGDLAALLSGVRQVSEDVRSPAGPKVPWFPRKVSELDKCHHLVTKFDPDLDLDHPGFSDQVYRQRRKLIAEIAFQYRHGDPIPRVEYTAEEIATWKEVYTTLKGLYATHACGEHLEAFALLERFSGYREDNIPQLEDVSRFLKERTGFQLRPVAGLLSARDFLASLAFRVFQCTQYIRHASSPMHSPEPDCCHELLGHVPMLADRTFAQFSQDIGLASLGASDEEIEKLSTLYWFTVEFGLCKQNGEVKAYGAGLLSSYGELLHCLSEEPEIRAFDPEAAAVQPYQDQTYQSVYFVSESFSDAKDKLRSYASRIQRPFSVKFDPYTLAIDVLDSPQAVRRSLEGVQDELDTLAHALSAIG
T4 sequence (P07101 102-528 limits assumed, stated change not applied): as above
Chain of TH, THNΔ35, THNΔ43, THNΔ70, THS40p (P07101 1-497 isoform P07101-3): as the sequence (P07101 1-497 isoform P07101-3) above

Compound `NCCc1ccc(O)c(O)c1` [DA, dopamine] has an IC50 ([1]; IC50 for DA inhibition of TH activity) of 0.49 ± 0.04 µM, an IC50 ([1]; read-out: IC50 for DA inhibition of TH activity) of roughly 0.5 µM and a remaining activity at 0.08 µM ([1]; read-out: Relative TH activity, TH, 0.08 µM dopamine, relative to mean activity with 0 µM DA, replicates) of 102%. For the same compound, the remaining activity at 0.63 µM ([1]; read-out: Relative TH activity, TH, 0.63 µM dopamine, relative to mean activity with 0 µM DA, replicates) was 48.2%, the remaining activity at 5 µM ([1]; read-out: Relative TH activity, TH, 5.00 µM dopamine, relative to mean activity with 0 µM DA, replicates) was 10% and the remaining activity at 10 µM ([1]; read-out: Relative TH activity, TH, 10.00 µM dopamine, relative to mean activity with 0 µM DA, replicates) was 6.24%. The IC50 ([2]; THNΔ35, mean ± SD, n = 3, 37 °C, 50 µM L-Tyr, 200 µM BH4) was 0.22 ± 0.02 µM, the remaining activity at 0.05 µM ([2]; read-out: Relative TH activity, THNΔ35, 0.05 µM dopamine, relative to mean activity with 0 µM DA, replicates) was 89.3% and the remaining activity at 0.1 µM ([2]; read-out: Relative TH activity, THNΔ35, 0.10 µM dopamine, relative to mean activity with 0 µM DA, replicates) was 73.8%. The remaining activity at 0.2 µM ([2]; read-out: Relative TH activity, THNΔ35, 0.20 µM dopamine, relative to mean activity with 0 µM DA, replicates) was 56.1%, the remaining activity at 0.78 µM ([2]; read-out: Relative TH activity, THNΔ35, […] µM dopamine, relative to mean activity with 0 µM DA, replicates) was 29.7% and the remaining activity at 6.25 µM ([2]; read-out: Relative TH activity, THNΔ35, 6.25 µM dopamine, relative to mean activity with 0 µM DA, replicates) was 8.14%. The remaining activity at 25 µM ([2]; read-out: Relative TH activity, THNΔ35, […] dopamine, relative to mean activity with 0 µM DA, replicates) was 3.12%, the IC50 ([3]; THNΔ43, mean ± SD, n = 3, 37 °C, 50 µM L-Tyr, 200 µM BH4) was 18.1 ± 1 µM and the remaining activity at 0.2 µM ([3]; read-out: Relative TH activity, THNΔ43, 0.20 µM dopamine, relative to mean activity with 0 µM DA, replicates) was 105%. For the same compound, the remaining activity at 6.25 µM ([3]; read-out: Relative TH activity, THNΔ43, 6.25 µM dopamine, relative to mean activity with 0 µM DA, replicates) was 73.9%, the remaining activity at 12.49 µM ([3]; read-out: Relative TH activity, THNΔ43, […] µM dopamine, relative to mean activity with 0 µM DA, replicates) was 59.8% and the remaining activity at 24.98 µM ([3]; read-out: Relative TH activity, THNΔ43, 24.98 µM dopamine, relative to mean activity with 0 µM DA, replicates) was 43.9%. For the same compound, the remaining activity at 49.97 µM ([3]; read-out: Relative TH activity, THNΔ43, 49.97 µM dopamine, relative to mean activity with 0 µM DA, replicates) was 28.7%, the remaining activity at 199.88 µM ([3]; read-out: Relative TH activity, THNΔ43, 199.88 µM dopamine, relative to mean activity with 0 µM DA, replicates) was 11.8% and the IC50 ([4]; THNΔ70, mean ± SD, n = 3, 37 °C, 50 µM L-Tyr, 200 µM BH4) was 19.4 ± 5.6 µM. For the same compound, the remaining activity at 0.2 µM ([4]; read-out: Relative TH activity, THNΔ70, 0.20 µM dopamine, relative to mean activity with 0 µM DA, replicates) was 113%, the remaining activity at 12.58 µM ([4]; read-out: Relative TH activity, THNΔ70, […] µM dopamine, relative to mean activity with 0 µM DA, replicates) was 74.6% and the remaining activity at 50.31 µM ([4]; read-out: Relative TH activity, THNΔ70, 50.31 µM dopamine, relative to mean activity with 0 µM DA, replicates) was 35.7%. For the same compound, the remaining activity at 201.25 µM ([4]; read-out: Relative TH activity, THNΔ70, 201.25 µM dopamine, relative to mean activity with 0 µM DA, replicates) was 13.3%, the remaining activity at 1000 µM ([5]; 5 min, read-out: Relative TH activity, THS40p, 1000.00 µM dopamine, relative to mean activity with 0 µM DA, replicates) was 0% and the IC50 ([5]; Dopamine IC50, THS40p, source data Fig 5f, SEM in a column of its own) was 12.4 µM. The IC50 ([5]; THS40p, mean ± SD, n = 3, 37 °C, 50 µM L-Tyr, 200 µM BH4, read-out: IC50 for DA inhibition of TH activity) was 12.4 ± 2.3 µM, the “Tonset with DA” value ([6]; TH + two-fold molar ratio of DA, mean ± SD, without DA 43.3 ± 0.2) was 45.2 ± 0.6 °C and the “Tmax with DA” value ([6]; TH + two-fold molar ratio of DA, mean ± SD, without DA 54.9 ± 0.4) was 58.6 ± 0.6 °C. For the same compound, the “T max, TH+DA” value [6, 8] was 59.32 °C and 58.94 °C and 58.11 °C and 58.01 °C, the “T onset, TH+DA” value [6, 8] was 45.07 °C and 45.48 °C and 44.42 °C and 45.76 °C and the “Tonset with DA” value (THNΔ35; THNΔ35 + two-fold molar ratio of DA, mean ± SD, without DA 37.5 ± 1.2) was 39.6 ± 0.3 °C. For the same compound, the “Tmax with DA” value (THNΔ35; THNΔ35 + two-fold molar ratio of DA, mean ± SD, without DA 51.7 ± 0.7) was 54.9 ± 1.0 °C, the “T max, THNΔ35+DA” value (THNΔ35; [8]) was 56.43 °C and 54.75 °C and 54.43 °C and 54.1 °C and the “T onset, THNΔ35+DA” value (THNΔ35; [8]) was 39.27 °C and 39.93 °C and 39.71 °C and 39.61 °C. For the same compound, the “Tonset with DA” value (THNΔ43; THNΔ43 + two-fold molar ratio of DA, mean ± SD, without DA 43.3 ± 0.9) was 43.5 ± 0.5 °C, the “Tmax with DA” value (THNΔ43; THNΔ43 + two-fold molar ratio of DA, mean ± SD, without DA 54.3 ± 1.7) was 56.5 ± 0.4 °C and the “T max, THNΔ43+DA” value (THNΔ43; [8]) was 56.94 °C and 56.71 °C and 56.44 °C and 56.11 °C. For the same compound, the “T onset, THNΔ43+DA” value (THNΔ43; [8]) was 43.98 °C and 42.91 °C and 43.13 °C and 43.87 °C and 43.53 °C, the “Tonset with DA” value (THNΔ70; THNΔ70 + two-fold molar ratio of DA, mean ± SD, without DA 45.0 ± 0.5) was 45.6 ± 0.6 °C and the “Tmax with DA” value (THNΔ70; THNΔ70 + two-fold molar ratio of DA, mean ± SD, without DA 56.0 ± 0.1) was 56.4 ± 0.2 °C. The “T max, THNΔ70+DA” value (THNΔ70; [8]) was 56.38 °C and 56.21 °C and 56.6 °C, the “T onset, THNΔ70+DA” value (THNΔ70; [8]) was 45.36 °C and 45.19 °C and 46.36 °C and the “Effect of incubation with DA on secondary structure (helix content) of TH” value [7] was “no increase in helix content”.
